A short description of data set [1]: Clinical phase 2 studies in PNH, IgAN, C3G. The format is in vivo, human.
For the next data set, the system named is Bb. Briefly: Bb level in MAD study. The class given is in vivo, human. The conditions noted are these: all iptacopan cohorts.
Data set [2] in a line: 39-week dog toxicity study, safety margins for human exposure. The following applies: 39-week dog study.
The nature of data set [3]: First in human study in healthy volunteers, single ascending dose (SAD) and multiple ascending dose (MAD).
In the next data set the test system is AP activity. The data set can be described thus: Wieslab AP assay in MAD study. The class given is in vivo, human. The conditions noted are these: for inhibition of AP activity (Wieslab AP assay): sustained over 14 days of dosing.

Consider `CCO[C@H]1CCN(Cc2c(OC)cc(C)c3[nH]ccc23)[C@H](c2ccc(C(=O)O)cc2)C1` [iptacopan], for which the response rate result in data set [1] (200 mg b.i.d., all tested indications (PNH, IgAN, C3G)) is “highest response rate”. The proteinuria result in data set [1] (IgAN study Part 1, 200 mg b.i.d., over 90 days) is “reduce proteinuria”. Moreover, the “Bb level decrease from the baseline” value in the data set with Bb is 30-40%. Also, in data set [2], the “unbound systemic exposure (AUC-based) at 200 mg b.i.d. below lowest exposure with off-target testicular effects (LOAEL)” value is given as 17.3 fold. For the same compound, the “deaths, SAEs, or AEs leading to study drug discontinuation” value in data set [3] (102 healthy volunteers, SAD and MAD) is reported as “No deaths, SAEs, or AEs leading to study drug discontinuation were observed”. Moreover, in data set [3] (first in human studies), the permeability result is recorded as “good permeability” and the solubility result is reported as “high solubility”. Moreover, in the data set with AP activity (100 mg b.i.d.), the “inhibition of AP activity (Wieslab AP assay)” value was ≥ 80%. The “inhibition of AP activity (Wieslab AP assay)” value in the data set with AP activity (200 mg b.i.d.) is ≥ 80%. Besides, the “suppression of AP activity (Wieslab AP assay)” value in the data set with AP activity (MAD study, 10 to 200 mg b.i.d. for 2 weeks) is given as “dose dependent suppression of AP activity”.
